# Laboratory results from US10793520B2, “Sulfonylaminobenzamide compound and pest control agent” (Nippon Soda Co., Ltd., priority 2016, dated 2020).
# System: Mythimna separata
# Assay: Efficacy test against Mythimna separata (treated artificial feed)
# Conditions: in vivo
# Experimental: Five parts of the compound of the present invention, 93.6 parts of dimethylformamide and 1.4 parts of a polyoxyethylene alkyl aryl ether were mixed together and dissolved to obtain an emulsion (1) containing 5% of the active constituent.
# The mortality rate was calculated using the following equation. Mortality rate (%)=(number of dead pests/number of test pests)×100
# First, 0.8 g of an artificial feed (Insecta LFS, manufactured by Nosan Corporation) and 1 μl of the emulsion (I) were mixed thoroughly, and 0.2 g of the resulting mixture was placed in each of the treatment areas of a plastic test container (volume: 1.4 ml) to complete preparation of a test feed.
# Two second-instar larvae of Mythimna separata were inoculated into each treatment area, and the test container was sealed with a plastic lid. The sealed container was placed in a temperature-controlled room at 25° C., and the mortality rate and the amount of feed consumed were determined on the fifth day. The test was repeated. Further, a test performed under the same conditions, but with the exception of excluding the compound of the present invention from the emulsion (1), was used as a control.
row,SMILES,"mortality rate against Mythimna separata, or amount of feed consumed relative to control"
1,COC(=O)c1cc(Cl)cc(Cl)c1NC(=O)c1ccc(C(F)(F)F)cc1NS(=O)(=O)C(F)(F)F [a-71],"100%, or the amount of feed consumed was 10% or less"
2,COC(=O)c1cc(Br)ccc1NC(=O)c1ccc(Br)cc1NS(=O)(=O)C(F)(F)F [a-73],"100%, or the amount of feed consumed was 10% or less"
3,COC(=O)c1cc([N+](=O)[O-])ccc1NC(=O)c1ccc(C(F)(F)F)cc1NS(=O)(=O)C(F)(F)F [a-75],"100%, or the amount of feed consumed was 10% or less"
4,O=C(Nc1ccc(Br)cc1-n1cccn1)c1ccc(C(F)(F)F)cc1NS(=O)(=O)C(F)(F)F [a-76],"100%, or the amount of feed consumed was 10% or less"
5,COC(=O)c1cc(F)c(F)cc1NC(=O)c1ccc(C(F)(F)F)cc1NS(=O)(=O)C(F)(F)F [a-78],"100%, or the amount of feed consumed was 10% or less"
6,COC(=O)c1cc(I)c(Cl)cc1NC(=O)c1ccc(C(F)(F)F)cc1NS(=O)(=O)C(F)(F)F [a-79],"100%, or the amount of feed consumed was 10% or less"
7,O=C(Nc1cc(C(F)(F)F)ccc1-n1cccn1)c1ccc(C(F)(F)F)cc1NS(=O)(=O)C(F)(F)F [a-81],"100%, or the amount of feed consumed was 10% or less"
8,COC(=O)c1cc(C(F)(F)F)c(Cl)cc1NC(=O)c1ccc(C(F)(F)F)cc1NS(=O)(=O)C(F)(F)F [a-82],"100%, or the amount of feed consumed was 10% or less"
9,COC(=O)c1cc(Br)c(Cl)cc1NC(=O)c1ccc(C(F)(F)F)cc1NS(=O)(=O)C(F)(F)F [a-83],"100%, or the amount of feed consumed was 10% or less"
10,COC(=O)c1cc(Br)ccc1NC(=O)c1cc(C(F)(F)F)c(Cl)cc1NS(=O)(=O)C(F)(F)F [a-84],"100%, or the amount of feed consumed was 10% or less"
11,COC(=O)c1cc(Br)c(F)cc1NC(=O)c1ccc(C(F)(F)F)cc1NS(=O)(=O)C(F)(F)F [a-85],"100%, or the amount of feed consumed was 10% or less"
12,COC(=O)c1cc(C(F)(F)F)c(F)cc1NC(=O)c1ccc(C(F)(F)F)cc1NS(=O)(=O)C(F)(F)F [a-86],"100%, or the amount of feed consumed was 10% or less"
13,COC(=O)c1cc(F)c(F)cc1NC(=O)c1cc(F)c(F)cc1NS(=O)(=O)C(F)(F)F [a-87],"100%, or the amount of feed consumed was 10% or less"
14,COC(=O)c1cc(F)c(F)cc1NC(=O)c1cc(Br)c(Cl)cc1NS(=O)(=O)C(F)(F)F [a-88],"100%, or the amount of feed consumed was 10% or less"
15,COC(=O)c1cc(Cl)c(F)cc1NC(=O)c1ccc(C(F)(F)F)cc1NS(=O)(=O)C(F)(F)F [a-90],"100%, or the amount of feed consumed was 10% or less"
16,COC(=O)c1ccc(Cl)cc1NC(=O)c1ccc(C(F)(F)F)cc1NS(=O)(=O)C(F)(F)F [a-92],"100%, or the amount of feed consumed was 10% or less"
17,COC(=O)c1cnc(Cl)cc1NC(=O)c1ccc(C(F)(F)F)cc1NS(=O)(=O)C(F)(F)F [a-96],"100%, or the amount of feed consumed was 10% or less"
18,COC(=O)c1cc(F)c(F)cc1NC(=O)c1cc(Cl)c(Cl)cc1NS(=O)(=O)C(F)(F)F [a-97],"100%, or the amount of feed consumed was 10% or less"
19,COC(=O)c1cc(F)c(F)cc1NC(=O)c1cc(F)c(C(F)(F)F)cc1NS(=O)(=O)C(F)(F)F [a-98],"100%, or the amount of feed consumed was 10% or less"
20,COC(=O)c1cc(F)c(F)cc1NC(=O)c1cc(C(F)(F)F)c(F)cc1NS(=O)(=O)C(F)(F)F [a-99],"100%, or the amount of feed consumed was 10% or less"
21,COC(=O)c1cc(F)c(F)cc1NC(=O)c1ccc(-c2ccc(C(F)(F)F)nc2)cc1NS(=O)(=O)C(F)(F)F [a-100],"100%, or the amount of feed consumed was 10% or less"
22,O=C(Nc1ccc(C(F)(F)F)cc1[N+](=O)[O-])c1ccc(C(F)(F)F)cc1NS(=O)(=O)C(F)(F)F [a-103],"100%, or the amount of feed consumed was 10% or less"
23,COC(=O)c1cc(OC(F)(F)F)ccc1NC(=O)c1ccc(C(F)(F)F)cc1NS(=O)(=O)C(F)(F)F [a-109],"100%, or the amount of feed consumed was 10% or less"

row,SMILES,"mortality rate against Mythimna separata, or amount of feed consumed relative to control"
1,COC(=O)c1cc(OC(F)(F)F)ccc1NC(=O)c1cc(F)c(F)cc1NS(=O)(=O)C(F)(F)F [a-110],"100%, or the amount of feed consumed was 10% or less"
2,COC(=O)c1cc(C(F)(F)F)ccc1NC(=O)c1cc(F)c(F)cc1NS(=O)(=O)C(F)(F)F [a-111],"100%, or the amount of feed consumed was 10% or less"
3,COC(=O)c1cc(C(F)(F)F)ccc1NC(=O)c1cc(Br)c(Cl)cc1NS(=O)(=O)C(F)(F)F [a-112],"100%, or the amount of feed consumed was 10% or less"
4,COC(=O)c1cc([N+](=O)[O-])ccc1NC(=O)c1cc(F)c(F)cc1NS(=O)(=O)C(F)(F)F [a-113],"100%, or the amount of feed consumed was 10% or less"
5,CON=Cc1cc(Cl)ccc1NC(=O)c1ccc(C(F)(F)F)cc1NS(=O)(=O)C(F)(F)F [a-115],"100%, or the amount of feed consumed was 10% or less"
6,O=C(Nc1cc(F)c(F)cc1F)c1ccc(C(F)(F)F)cc1NS(=O)(=O)C(F)(F)F [a-116],"100%, or the amount of feed consumed was 10% or less"
7,O=C(Nc1ccc(C(F)(F)F)cc1)c1ccc(-c2ccc(C(F)(F)F)nc2)cc1NS(=O)(=O)C(F)(F)F [a-118],"100%, or the amount of feed consumed was 10% or less"
8,O=C(Nc1ccc(C(F)(F)F)c(F)c1)c1ccc(-c2ccc(C(F)(F)F)nc2)cc1NS(=O)(=O)C(F)(F)F [a-119],"100%, or the amount of feed consumed was 10% or less"
9,O=C(Nc1ccc(F)c(C(F)(F)F)c1)c1ccc(-c2ccc(C(F)(F)F)nc2)cc1NS(=O)(=O)C(F)(F)F [a-120],"100%, or the amount of feed consumed was 10% or less"
10,O=C(Nc1ccc([N+](=O)[O-])cc1)c1ccc(-c2ccc(C(F)(F)F)nc2)cc1NS(=O)(=O)C(F)(F)F [a-121],"100%, or the amount of feed consumed was 10% or less"
11,O=C(Nc1ccc(C(F)(F)F)cc1)c1cc(C(F)(F)F)c(F)cc1NS(=O)(=O)C(F)(F)F [a-122],"100%, or the amount of feed consumed was 10% or less"
12,O=C(Nc1ccc(C(F)(F)F)cc1)c1cc(F)c(C(F)(F)F)cc1NS(=O)(=O)C(F)(F)F [a-123],"100%, or the amount of feed consumed was 10% or less"
13,O=C(Nc1ccc(C(F)(F)F)cc1)c1cc(Br)c(Cl)cc1NS(=O)(=O)C(F)(F)F [a-124],"100%, or the amount of feed consumed was 10% or less"
14,COC(=O)c1c(NC(=O)c2ccc(C(F)(F)F)cc2NS(=O)(=O)C(F)(F)F)ccc(Br)c1F [a-126],"100%, or the amount of feed consumed was 10% or less"
15,O=C(Nc1ccc(C(F)(F)F)cc1)c1cc(F)c(F)cc1NS(=O)(=O)C(F)(F)F [a-127],"100%, or the amount of feed consumed was 10% or less"
16,O=C(Nc1ccc(C(F)(F)F)cc1)c1cc(Cl)c(Cl)cc1NS(=O)(=O)C(F)(F)F [a-128],"100%, or the amount of feed consumed was 10% or less"
17,O=C(Nc1ccc(C(F)(F)F)cc1)c1cc(Cl)c(F)cc1NS(=O)(=O)C(F)(F)F [a-129],"100%, or the amount of feed consumed was 10% or less"
18,COC(=O)c1ccc(C(F)(F)F)cc1NC(=O)c1cc(Br)c(Cl)cc1NS(=O)(=O)C(F)(F)F [a-131],"100%, or the amount of feed consumed was 10% or less"
19,COC(=O)c1cc(F)c(F)cc1NC(=O)c1cc(Cl)c(Br)cc1NS(=O)(=O)C(F)(F)F [a-132],"100%, or the amount of feed consumed was 10% or less"
20,CC(=O)c1ccc(C(F)(F)F)cc1NC(=O)c1ccc(C(F)(F)F)cc1NS(=O)(=O)C(F)(F)F [a-134],"100%, or the amount of feed consumed was 10% or less"
21,O=C(Nc1ccc(C(F)(F)F)cc1-n1cccn1)c1ccc(C(F)(F)F)cc1NS(=O)(=O)C(F)(F)F [a-135],"100%, or the amount of feed consumed was 10% or less"
22,COC(=O)c1ccc(C(F)(F)F)cc1NC(=O)c1cc(Cl)c(F)cc1NS(=O)(=O)C(F)(F)F [a-137],"100%, or the amount of feed consumed was 10% or less"
